Measured values taken from patent EP4748839A1 (CSPC Zhongqi Pharmaceutical Technology (Shijiazhuang) Co., …, priority 2023, dated 2025).

Molecular target: T1, GLP-1R (Homo sapiens, UniProt P43220)
T1 construct: expressed in transfected cells
Assay: GLP-1R agonistic effect in GLP1R-cAmp-Luc cells (luciferase reporter; titled 'Enzymatic assay')
Format: cell-based
Conditions: for EC50: 4 hours incubation, firefly luciferin signal; for EC50 of Positive reference / EC50 of Compound of the Present Application: Positive reference is PF-06882961
Protocol: The GLP-1R agonistic effects of the test compounds were determined using GLP1R-cAmp-Luc cells. 1) The test compound was dissolved in DMSO and mixed well until the test compound was completely dissolved. The test compounds were dissolved in DMSO to prepare 10 mM stock solutions. All compounds were diluted with DMEM medium (high sugar, Puromycin^+, Hygromycin B^+) to an initial concentration of 1250 nM, and then subjected to 5-fold serial dilution to a total of 7 concentration gradients. The GLP1R-cAmp-Luc cells were seeded in white-wall 96-well cell culture plates at a density of 1×10^5/mL, with 90 µL cell suspension per well; the test compound at each of the 7 concentration gradients was added at 10 µL per well, with the actual initial working concentration of 125 nM; and the cells were placed in a 37 °C, 5% CO2 cell incubator for 4 hours; 2) 100 µL of luciferin potassium salt solution diluted to 300 µg/mL in PBS was added to each well at a working concentration of 150 µg/mL and incubated at room temperature for 30 minutes; 3) fluorescence signals of firefly luciferin were measured with a multifunctional microplate reader (PerkinElmer, Nivo); and the fluorescence values were processed using GraphPad Prism software to calculate EC50 values.

T1 sequence (P43220 24-463, species assumed): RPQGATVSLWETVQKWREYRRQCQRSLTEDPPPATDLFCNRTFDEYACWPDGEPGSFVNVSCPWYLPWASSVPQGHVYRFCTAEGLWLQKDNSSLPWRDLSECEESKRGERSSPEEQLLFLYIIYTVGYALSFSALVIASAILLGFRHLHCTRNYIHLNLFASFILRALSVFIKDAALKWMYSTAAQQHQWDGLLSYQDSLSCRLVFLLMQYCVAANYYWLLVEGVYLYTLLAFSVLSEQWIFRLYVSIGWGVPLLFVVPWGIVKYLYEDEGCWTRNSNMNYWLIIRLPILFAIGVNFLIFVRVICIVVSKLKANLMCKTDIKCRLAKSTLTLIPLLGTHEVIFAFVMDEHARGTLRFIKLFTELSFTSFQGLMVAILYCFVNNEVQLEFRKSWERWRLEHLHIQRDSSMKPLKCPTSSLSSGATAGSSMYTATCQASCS

Structure (SMILES)	EC50 [nM]	EC50 of Positive reference / EC50 of Compound of the Present Application
COc1cc(C(=O)O)cc2c1nc(Cc1c(F)cc(-c3ccnc(OCc4ccc(Cl)cc4OC(F)F)n3)c3c1CCO3)n2C[C@@H]1CCO1 [Compound 113, (S)-2-((7-(2-((2-difluoromethoxy-4-chlorobenzyl)oxy)pyrimidin-4-yl)-5-fluoro-2,3-dihydrobenzofuran-4-yl)methyl)-4-methoxy-1-(oxetan-2-ylmethyl)-1H-benzo[d]imidazole-6-carboxylic acid]	≤ 1	Ratio ≥10
COc1cc(C(=O)O)cc2c1nc(Cc1c(F)cc(-c3cccc(OCc4ccc(Cl)cc4F)c3)c3c1CCO3)n2C[C@@H]1CCO1 [Compound 107, (S)-2-((7-(3-((4-chloro-2-fluorobenzyl)oxy)phenyl)-5-fluoro-2,3-dihydrobenzofuran-4-yl)methyl)-4-methoxy-1-(oxetan-2-ylmethyl)-1H-benzo[d]imidazole-6-carboxylic acid]	1 to 5	–
COc1cc(C(=O)O)cc2c1nc(Cc1c(F)cc(-c3ncc(F)c(OCc4ccc(C5COC5)cc4F)n3)c3c1CCO3)n2C[C@@H]1CCO1 [Compound 129, (S)-2-((7-(5-fluoro-4-((2-fluoro-4-(oxetan-3-yl)benzyl)oxy)pyrimidin-2-yl)-5-fluoro-2,3-dihydrobenzofuran-4-yl)methyl)-4-methoxy-1-(oxetan-2-ylmethyl)-1H-benzo[d]imidazole-6-carboxylic acid]	≤ 1	–
N#CCC1(Cn2c(Cc3c(Cl)cc(-c4cccc(OCc5ccc(C#N)cc5F)n4)c4c3CCO4)nc3ccc(C(=O)O)cc32)CC1 [Compound 18, 2-((5-chloro-7-(6-((4-cyano-2-fluorobenzyl)oxy)pyridin-2-yl)-2,3-dihydrobenzofuran-4-yl)methyl)-1-((1-(cyanomethyl)cyclopropyl)methyl)-1H-benzo[d]imidazole-6-carboxylic acid]	1 to 5	–
CC(c1ccc(-c2cccc(OCc3ccc(C#N)cc3F)n2)c2c1CCO2)c1nc2ccc(C(=O)O)cc2n1C[C@@H]1CCO1 (stereo partly drawn) [Compound 6, 2-(1-(7-(6-((4-cyano-2-fluorobenzyl)oxy)pyridin-2-yl)-2,3-dihydrobenzofuran-4-yl)ethyl)-1-(((S)-oxetan-2-yl)methyl)-1H-benzo[d]imidazole-6-carboxylic acid]	5 to 10	–
COc1cc(C(=O)O)cc2c1nc(Cc1c(F)cc(-c3cccc(OCc4ccc(Cl)cc4F)n3)c3c1CCO3)n2C[C@@H]1CCO1 [Compound 81, (S)-2-((7-(6-((4-chloro-2-fluorobenzyl)oxy)pyridin-2-yl)-5-fluoro-2,3-dihydrobenzofuran-4-yl)methyl)-4-methoxy-1-(oxetan-2-ylmethyl)-1H-benzo[d]imidazole-6-carboxylic acid]	≤ 1	Ratio ≥10
N#Cc1ccc(COc2cccc(-c3ccc(Cc4nc5ccc(C(=O)O)cc5n4C[C@@H]4CCO4)c4c3OCO4)n2)c(F)c1 [Compound 1, (S)-2-((7-(6-((4-cyano-2-fluorobenzyl)oxy)pyridin-2-yl)benzo[d][1,3]dioxolan-4-yl)methyl)-1-(oxetan-2-ylmethyl)-1H-benzo[d]imidazole-6-carboxylic acid]	5 to 10	–
O=C(O)c1ccc2nc(Cc3c(F)cc(-c4cccc(OCc5ccc(Cl)cc5OC(F)F)n4)c4c3CCO4)n(C[C@@H]3CCO3)c2c1 [Compound 95, (S)-2-((7-(6-((4-chloro-2-(difluoromethoxy)benzyl)oxy)pyridin-2-yl)-5-fluoro-2,3-dihydrobenzofuran-4-yl)methyl)-1-(oxetan-2-ylmethyl)-1H-benzimidazole-6-carboxylic acid]	≤ 1	–
COc1cc(C(=O)O)cc2c1nc(Cc1c(F)cc(-c3ccc(F)c(OCc4ccc(C#N)cc4F)n3)c3c1CCO3)n2C[C@@H]1CCO1 [Compound 115]	≤ 1	Ratio ≥10
COc1cc(C(=O)O)cc2c1nc(Cc1c(F)cc(-c3ccc(F)c(OCc4ccc(Cl)cc4OC(F)F)n3)c3c1CCO3)n2C[C@@H]1CCO1 [Compound 114]	≤ 1	Ratio ≥10
COc1cc(C(F)(F)F)ccc1COc1nc(-c2cc(F)c(Cc3nc4c(OC)cc(C(=O)O)cc4n3C[C@@H]3CCO3)c3c2OCC3)ccc1F [Compound 116, (S)-2-((7-(5-fluoro-6-((2-methoxy-4-(trifluoromethyl)benzyl)oxy)pyridin-2-yl)-5-fluoro-2,3-dihydrobenzofuran-4-yl)methyl)-4-methoxy-1-(oxetan-2-ylmethyl)-1H-benzo[d]imidazole-6-carboxylic acid]	≤ 1	Ratio ≥10
COc1cc(C(=O)O)cc2c1nc(Cc1c(F)cc(-c3ccnc(OCc4ccc(C5COC5)cc4F)n3)c3c1CCO3)n2C[C@@H]1CCO1 [Compound 120, (S)-2-((7-(2-((2-fluoro-4-(oxetan-3-yl)benzyl)oxy)pyrimidin-4-yl)-5-fluoro-2,3-dihydrobenzofuran-4-yl)methyl)-4-methoxy-1-(oxetan-2-ylmethyl)-1H-benzo[d]imidazole-6-carboxylic acid]	≤ 1	Ratio ≥10
COc1cc(C(=O)O)cc2c1nc(Cc1c(F)cc(-c3ccnc(OCc4ccc(Cl)cc4F)n3)c3c1CCO3)n2CC1(CF)CC1 [Compound 112, 2-((7-(2-((4-Chloro-2-fluorobenzyl)oxy)pyrimidin-4-yl)-5-fluoro-2,3-dihydrobenzofuran-4-yl)methyl)-1-((1-(fluoromethyl)cyclopropyl)methyl)-4-methoxy-1H-benzo[d]imidazole-6-carboxylic acid]	1 to 5	–
CCOc1cc(C(=O)O)cc2c1nc(Cc1c(F)cc(-c3ccnc(OCc4ccc(Cl)cc4F)n3)c3c1CCO3)n2C[C@@H]1CCO1 [Compound 121, (S)-2-((7-(2-((4-chloro-2-fluorobenzyl)oxy)pyrimidin-4-yl)-5-fluoro-2,3-dihydrobenzofuran-4-yl)methyl)-4-ethoxy-1-(oxetan-2-ylmethyl)-1H-benzo[d]imidazole-6-carboxylic acid]	≤ 1	Ratio ≥10
COc1cc(C(F)(F)F)ccc1COc1cccc(-c2cc(F)c(Cc3nc4c(OCC(F)F)cc(C(=O)O)cc4n3CC3(CF)CC3)c3c2OCC3)n1 [Compound 79]	≤ 1	–
CCOc1cc(C(=O)O)cc2c1nc(Cc1c(F)cc(-c3ccc(F)c(OCc4ccc(Cl)cc4F)n3)c3c1CCO3)n2C[C@@H]1CCO1 [Compound 122, (S)-2-((7-(6-((4-chloro-2-fluorobenzyl)oxy)-5-fluoropyridin-2-yl)-5-fluoro-2,3-dihydrobenzofuran-4-yl)methyl)-4-ethoxy-1-(oxetan-2-ylmethyl)-1H-benzo[d]imidazole-6-carboxylic acid]	1 to 5	Ratio ≥10
COc1cc(C(=O)O)cc2c1nc(Cc1c(F)cc(-c3ccc(Cl)c(OCc4ccc(Cl)cc4F)n3)c3c1CCO3)n2C[C@@H]1CCO1 [Compound 108, (S)-2-((7-(5-chloro-6-((4-chloro-2-fluorobenzyl)oxy)pyridin-2-yl)-5-fluoro-2,3-dihydrobenzofuran-4-yl)methyl)-4-methoxy-1-(oxetan-2-ylmethyl)-1H-benzo[d]imidazole-6-carboxylic acid]	1 to 5	–
N#Cc1ccc(COc2cccc(-c3ccc(Cc4nc5ccc(C(=O)O)cc5n4C[C@@H]4CCO4)c4c3OCC4)n2)c(F)c1 [Compound 2, (S)-2-((7-(6-((4-cyano-2-fluorobenzyl)oxy)pyridin-2-yl)-2,3-dihydrobenzofuran-4-yl)methyl)-1-(oxetan-2-ylmethyl)-1H-benzo[d]imidazole-6-carboxylic acid]	1 to 5	–
COc1cc(C(=O)O)cc2c1nc(Cc1c(F)cc(-c3nc(OCc4ccc(Cl)cc4OC(F)F)ncc3F)c3c1CCO3)n2C[C@@H]1CCO1 [Compound 131]	≤ 1	Ratio ≥10
COc1cc(C(=O)O)cc2c1nc(Cc1c(F)cc(-c3nccc(OCc4ccc(Cl)cc4F)n3)c3c1CCO3)n2C[C@@H]1CCO1 [Compound 117, (S)-2-((7-(4-((4-chloro-2-fluorobenzyl)oxy)pyrimidin-2-yl)-5-fluoro-2,3-dihydrobenzofuran-4-yl)methyl)-4-methoxy-1-(oxetan-2-ylmethyl)-1H-benzo[d]imidazole-6-carboxylic acid]	≤ 1	Ratio ≥10
COc1cc(C(F)(F)F)ccc1COc1nccc(-c2cc(F)c(Cc3nc4c(OC)cc(C(=O)O)cc4n3C[C@@H]3CCO3)c3c2OCC3)n1 [Compound 110, (S)-2-((7-(2-((2-methoxy-4-(trifluoromethyl)benzyl)oxy)pyrimidin-4-yl)-5-fluoro-2,3-dihydrobenzofuran-4-yl)methyl)-4-methoxy-1-(oxetan-2-ylmethyl)-1H-benzo[d]imidazole-6-carboxylic acid]	≤ 1	Ratio ≥10
O=C(O)c1cc(OCC(F)F)c2nc(Cc3c(F)cc(-c4cccc(OCc5ccc(Cl)cc5OC(F)F)n4)c4c3OCO4)n(CC3(CF)CC3)c2c1 [Compound 86, 2-((7-(6-((4-Chloro-2-(difluoromethoxy)benzyl)oxy)pyridin-2-yl)-5-fluoro-benzo[d][1,3]dioxolan-4-yl)methyl)-4-(2,2-difluoroethoxy)-1-((1-(fluoromethyl)cyclopropyl)methyl)-1H-benzo[d]imidazole-6-carboxylic acid]	1 to 5	–
